Columns and labels:
[1] = tested on: UCI tumor xenograft; assay: Microvascular density by anti-CD34 immunohistochemistry and H & E staining of tumor and normal organs; type: in vivo, nude mice
Procedure: FIGS. 2A-B. Stilbene 5c treatment decreases microvascular density in tumor but not in normal organs. Nude mice with UCI tumor xenograft were treated with 10% DMSO or stilbene 5c at 50 mg/kg intraperitoneally. Mice were sacrificed at 4 hours after injection, and various organs and tumor were harvested for fixation and standard hematoxylin and eosin (H & E) staining. Immunohistochemical staining of each section was performed with anti-CD34 antibody to quantify the microvascular density. In the original immunohistochemical stained sections, brown staining indicated a positive signal for CD34 staining. (A) Shown are the black and white pictures in 200× fold magnification. The numbers of positive signals in each CD34 stained picture are counted and are shown in the right lower corner of each panel. (B) The averages and standard deviations of 4 different fields that show the most abundant microvascular density are plotted in a histogram. The sections from kidney cannot be scored due to the fact that all vessels around renal tubules are fused into a large network in the picture.
After mice were sacrificed, major organs and tumors were dissected and fixed in 10% formalin. Tissues were embedded in paraffin and sections were stained with H & E, and with antibody against CD34 for quantification of microvascular density. The scoring of microvascular density was based on the methods described by Weidner et al. by counting the CD34-positive signals in a photo frame of 200× magnification using Nikon ECLIPSE E800M microscope equipped with a Diagnostic Instruments Spot RT CCD camera.
We took tissues that were studied with DCE-MRI to investigate the vascular density of tumor and correlate with the results from DCE-MRI-derived vascular perfusion studies. We particularly examined sections from heart and brain, where the toxicity of colchicine site inhibitors was observed. Tissue sections were stained with standard H & E and anti-CD34 (an endothelial marker) antibody by immunohistochemistry staining. […] There was also no histological difference in tumor either. We then used anti-CD34 staining to score microvascular density in tumor and various normal organs (54, 55). The results are indicated at the right lower corner of each panel except kidney, which cannot be scored due to fusion of the capillary network rather than discrete dots or tubes in appearance.

[2] = tested on: UCI-101 tumor xenografts; assay: Tumor xenograft size after multiple dosing (days 8, 10, 12); type: in vivo, nude mice; settings: ip on days 8, 10 and 12; stilbene 5c 50 mg/kg, tirapazamine 60 mg/kg; day 14; 6 mice per group
Procedure: The long and short axes of tumor were measured to calculate tumor size and plotted against days. Each treatment group contains 6 mice.
Mice were then sacrificed at day 14. The long and short axes of tumors were measured to calculate tumor size and plotted against days. Each treatment group contains 6 mice.
Tumor cell lines used in this study include UCI-101 ovarian cancer cells and Hep3B hepatocellular carcinoma cells. Cells are grown in IMEM and DMEM, respectively, supplemented with 10% fetal bovine serum, glutamine, and penicillium/streptomycin in 5% CO2 humidified environment. When cells were grown to 80% confluent, cells were harvested with 1% trypsin and washed with phosphate-buffered saline three times before injected subcutaneously into nude mice. For mouse xenograft studies, 2×10^6 tumor cells were injected in the back subcutaneously. Nude mice were purchased from NCI Development Therapeutic Program as described. Tumor size was monitored by long and short axes (a and b, respectively) by a caliber and tumor volume was calculated by the formula ab^2/2. […] Treatment with AAA bevacizumab was done by tail vein injection at a dose of 10 mg/kg.
Next we measured the size of tumor xenografts after multiple dosing. Nude mice were injected subcutaneously with UCI-101 cells and tumor became visible after day 7. […] Tumor xenografts were measured and sizes are plotted in FIG. 7.

[3] = tested on: UCI101 tumor xenografts; assay: Tumor necrosis in H&E sections three days after treatment; settings: tirapazamine 60 mg/kg ip, 60 min later stilbene 5c 50 mg/kg ip; sacrificed three days later
Procedure: Mice were sacrificed three days later and tumors were harvested for H&E section. […] The portion of tumor that stained darker is viable, whereas the portion in lighter color is the necrotic area.
After 60 min, stilbene 5c was administered intraperitoneally at 50 mg/kg, which has been established to be capable of inducing profound tumor hypoxia within minutes (FIG. 3). […] Mice were then sacrificed three days later. Tumors were harvested and the center portion of tumor was sliced and analyzed with histological section and H&E staining.

[4] = tested on: UCI-101 ovarian cancer tumor xenografts; assay: Real-time measurement of tumor oxygen and blood flow (OxyLite/OxyFlo); type: in vivo, nude mice; settings: 50 mg/kg intraperitoneal
Procedure: FIG. 3. Tumor blood flow and oxygen content in tumor. Oxygen and blood flow were monitored by OxyFlo and OxyLite system (Optronix, Oxford, UK). Mice were anesthetized with isoflurane and a triple sensor that records temperature, oxygen and blood flow was inserted into tumor and left for 1 hour for recording. Shown are the results of three mice with similar size subcutaneous tumors derived from UCI-101 ovarian cancer cells. Top panels are oxygen level and lower panels are tumor blood flow. Timing of St5c injection was marked.
Nude mice were injected subcutaneously with UCI-101 ovarian cancer cells to form tumor xenografts. Tumor xenografts were subjected to oxygen and blood flow study when tumor size reached 8-10 mm in largest diameter. Tumor was punctured with 25 G needle to make a tunnel for insertion of sensor probe. The tip of the sensor probe was left in the center of the tumor. Tumor oxygen level and blood flow were determined by OxyLite 2000 dual channel monitoring system with “bare-fibre” type sensor probe, which is designed for measuring tissue oxygen, temperature and blood flow using laser Doppler technique (Optonix, oxford, UK). The measurement was done in a real time basis (100 measurements per second) and the oxygen level and tumor blood flow were recording continuously. Because the initial trauma induced by needle and insertion of sensor probe can interfere with blood flow and oxygenation, each mouse was recorded first without treatment for at least 20 min before the mice was injected intraperitoneally with the tested VDA cis-3, 4′,5-trimethoxy-3′-aminostilbene (stilbene 5c) at 50 mg/kg. The tumor blood flow and oxygen level was then recorded for another 20 min after treatment.
In this study, we performed proof of concept study with VDA stilbene 5c to confirm that stilbene 5c induce tumor hypoxia. […]
There are several issues that need to be considered in order to interpret the results. […] All mice were thus recorded for at least 20 min to record the pre-treatment baseline. […]

COc1cc(/C=C\c2ccc(OC)c(N)c2)cc(OC)c1 [stilbene 5c, cis-3, 4′, 5-trimethoxy-3′-aminostilbene]
decrease of tumor vascular density (CD34) ([1]; 50 mg/kg intraperitoneally, 4 hours after injection, vs 10% DMSO): ~4 fold | H & E staining changes in major organs ([1]; after stilbene 5c treatment): did not show any significant changes | microvascular density of tumor decreased to (CD34) ([1]; after stilbene 5c treatment): nearly one fourth | microvascular density of normal organs (heart, liver, kidney, brain) ([1]; after stilbene 5c treatment 50 mg/kg intraperitoneally): does not change | size of tumor compared with the control [2]: about 50% | area of tumor necrosis (H&E, qualitative) [3]: very small areas of tumor necrosis | tumor oxygen level after treatment ([4]; all three mice, within 20-30 min recording, baseline 15-60 mm Hg): less than 10 mm Hg | tumor blood flow after treatment, of the level before stilbene treatment ([4]; mice #1 and 3): less than 25% | tumor blood flow change ([4]; mouse #2 (low baseline flow 200-300)): significant in the beginning but subsequently recovered in some degree though still lower than baseline
